Experimental data reported in US12558358B2 (UNIVERZITA PALACKEHO V OLOMOUCI, priority 2019, dated 2026).

What was measured:
[1] = system: U2OS cells transduced by transcriptional circadian reporter mBmal1-Luc; assay: Circadian rhythm period, U2OS cells with Bmal1-Luc reporter (Example 1); type: cell-based, human; settings: luminescence 144 hours, cosinor analysis, FIG. 1
Method: (§1) Human osteosarcoma U2OS cells were grown in standard DMEM with 10% fetal calf serum. U2OS cells were transduced with lentiviral particles containing the reporter pLV6-Bmal1-Luc (S. Brown, Addgene plasmid #68833) and selected under Blasticidin. The cell line was clonally expanded and a single monoclonal cell line was used for further experiments. Cells were cultured in a 384-well plate in growth medium to 90+% confluence. Test compound or vehicle (DMSO) was applied to recording medium with 100 U/ml penicillin, 100 μg/ml streptomycin, 1× GlutaMAX (ThermoFisher, Waltham, MA, USA), 10% fetal calf serum (Sigma) and 0.1 mM Luciferin-EF (Promega Madison, WI, USA). Luminescence was recorded every hour for an additional 144 hours in Luminoskan Ascent (ThermoFisher). Circadian rhythm analysis was performed using cosinor analysis.

[2] = system: NIH3T3 cells with mPer2-Luc reporter; assay: Circadian rhythm period and amplitude, NIH3T3 cells with Per2-Luc reporter (Example 2); type: cell-based, mouse
Method: Mouse embryonic fibroblasts NIH3T3 cells were grown in standard DMEM with 10% fetal calf serum. NIH3T3 cells were transfected with 1 μg of Per2-Luc reporter (Meng, 2009) using GeneJuice (Novagen) and selected under hygromycin. The cell line was clonally expanded and a single monoclonal cell line was used for further experiments. Cells were cultured in a 96-well plate in growth medium to 90+% confluence. Test compound or vehicle (DMSO) was applied to recording medium with 100 U/ml penicillin, 100 μg/ml streptomycin, 1×GlutaMAX (ThermoFisher, Waltham, MA, USA), 10% fetal calf serum (Sigma) and 0.1 mM Luciferin-EF (Promega Madison, WI, USA). Luminescence was recorded every hour for an additional 144 hours in a Luminoskan Ascent (ThermoFisher). Circadian rhythm analysis was performed using cosinor analysis. […] The concentration and level of other proteins, whose rhythmic expression is controlled by an oscillator in the brain and peripheral tissues (so-called clock-controlled genes), is also necessarily affected.

[3] = system: explanted suprachiasmatic nuclei (SCN) of mPer2Luc mice; assay: PER2::Luc rhythm in organotypic SCN explants (Example 3); type: cell-based, mouse
Method: amplitude of circadian expression of the PER2::Luc clock reporter in the explanted suprachiasmatic nuclei (SCN) of the hypothalamus, the central clock of mammals, of the transgenic mouse line Male and female mPer2Luc mice (strain B6.129S6-Per2tm1Jt/J, JAX, USA) (Yoo et al., 2004) were maintained in a light/dark cycle with 12 hours of light and 12 hours of darkness (LD12: 12), killed between 12:00 and 15:00, i.e. 6-9 hours after turning on the lights, by rapid cervical dislocation under isoflurane anesthesia, their brains were removed and 250 μm thick SCN slices in ice-cold HBSS medium were prepared using a vibratome (Leica, Wetzlar, Germany). Two explants containing SCN from each brain were prepared. Individual SCN explants were then placed on Millicell Culture Inserts (Merck, Darmstadt, Germany) inside 35 mm Petri dishes with test compound or DMSO vehicle in 1 ml air-buffered recording medium supplemented with 100 U/ml penicillin, 100 μg/ml streptomycin (Sigma-Aldrich, St. Luis, MO, USA), 1×GlutaMAX (ThermoFisher, Waltham, MA, USA), 5% fetal calf serum (Sigma) and 0.1 mM Luciferin-EF (Promega Madison, WI, USA). The dishes were sealed with vacuum Vaseline and glass coverslips and placed inside a LumiCycle (Actimetrics) for bioluminescence recording. Rhythm analysis was performed in Lumicycle Analysis software (Actimetrics).

[4] = system: Bmal1 gene expression (mBmal1-Luc reporter); assay: mBmal1-Luc reporter expression in U2OS cells (Example 4); type: cell-based, human; settings: first 5-15 hours after application, FIG. 4
Method: as §1, with “1×GlutaMAX” for “1× GlutaMAX”, “for” for “for an”, “(ThermoFisher).” for “(ThermoFisher). Circadian rhythm analysis was performed using cosinor analysis.”

[5] = system: Per2 gene expression (mPer2-Luc reporter); assay: mPer2-Luc reporter expression in NIH3T3 cells (Example 5); type: cell-based, mouse; settings: NIH3T3, first 1-12 hours after application, FIG. 5
Method: Mouse embryonic fibroblasts NIH3T3 cells were grown in standard DMEM with 10% fetal calf serum. NIH3T3 cells were transfected with 1 μg of Per2-Luc reporter (Meng, 2009) using GeneJuice (Novagen) and selected under hygromycin. The cell line was clonally expanded and a single monoclonal cell line was used for further experiments. Cells were cultured in a 96-well plate in growth medium to 90+% confluence. Test compound or vehicle (DMSO) was applied to recording medium with 100 U/ml penicillin, 100 μg/ml streptomycin, 1×GlutaMAX (ThermoFisher, Waltham, MA, USA), 10% fetal calf serum (Sigma) and 0.1 mM Luciferin-EF (Promega Madison, WI, USA). Luminescence was recorded every hour for additional 144 hours in Luminoskan Ascent (ThermoFisher).

[6] = system: U2OS cells with mBmal1-Luc reporter; assay: Combination with other chronotherapeutics, mBmal1-Luc U2OS cells (Example 6); type: cell-based, human
Method: as §1, with “Test compounds” for “Test compound”, “(DMSO) were” for “(DMSO) was”, “streptomycin, 1×GlutaMAX” for “streptomycin, 1× GlutaMAX”, “for” for “for an”, “performed by” for “performed using”

[7] = system: cancer cell line A549; assay: Resazurin viability of A549 cells, pretreatment plus antineoplastics (Example 7); type: cell-based, human; settings: pretreatment 100 μM, antineoplastics 3.3 μM, 72 incubation, FIG. 7
Method: Human cancer cell line A549 was maintained in standard cultivation medium DMEM with 10% fetal bovine serum. 1000 cells were seeded into the wells of 384-well plate in 30 microliters of RPMI medium. After 24 hours, dexamethasone (final concentration 100 nM) was added in order to synchronize circadian oscillator together with N-(furan-2-ylmethyl)-7H-purin-6-amin (final concentration 100 μM) or DMSO vehicle. After 12 hours, DMSO vehicle or the evaluated antineoplastics (the final concentration 3.3 μM) were added. The compounds were dosed by ECHO system, the DMSO solutions were 1000-times concentrated. After 72 incubation, 1000-times concentrated solution of resazurin in DMSO to a final concentration of 0.0125 mg/ml was added. Fluorescence was measured after 3-hour incubation. […] An equivalent cytotoxic effect can be therefore achieved by an application of lower dose of antineoplastics.

[8] = system: retinal epithelium cells ARPE-19; type: cell-based; settings: human, 72 h
Method: (§2) It is used for viability testing of eukaryotic cells. The effect of the compounds in several concentrations (maximum concentration of 100 microM and 3 three-fold dilutions) on viability of skin fibroblasts BJ and retinal epithelium cells ARPE-19 was evaluated after 72 hour treatment. The cells were maintained in standard cultivation medium DMEM with 10% fetal bovine serum. 5000 cells were seeded into 96-well plates 24 hours prior to the addition of test compound. DMSO vehicle was used as a negative control. After 72 hours, 1000-times concentrated solution of resazurin in DMSO was added to the cells zo the final concentration of 0.0125 mg/ml. Fluorescence (ex=570 nm, em=610 nm) was measured after 1 hour (ARPE-19) or 3 hours (BJ) of incubation. IC50 values were calculated from dose response curves using drc library for R programming environment.

[9] = system: skin fibroblasts BJ; type: cell-based; settings: human, 72 h
Method: as §2

[10] = system: Human fibroblasts BJ; assay: Long-term cultivation of BJ fibroblasts, cell count (Example 9); type: cell-based; settings: 12.5-100 µM, 12th day, FIG. 8
Method: Human fibroblasts BJ were maintained in standard cultivation medium DMEM with 10% fetal bovine serum. The experiment was performed in 24-well plates. 10,000 cells in DMEM medium with 10% fetal bovine serum were seeded into the wells. The test compound was added to a final concentration in the range of 12.5-100 µM after 24 hours. DMSO vehicle was used as a negative control. In order to obtained better idea of test variability, 8 control wells were used (columns A and D). The cultivation medium containing either test compound or DMSO was replaced twice a week. The cells were trypsinized on the 12th day and counted on Coulter Z2 apparatus.

[11] = in vitro; type: in vitro ADME
Method: (§3) This system is further referred to as RF-MS. Preparation of the lyophilized samples for the analysis is described in the sections dedicated to the individual methods. Lyophilized samples were dissolved in the mobile phase (95% water, 5% acetonitrile, 0.1% formic acid) with respective internal standards. The dissolved samples were aspired directly from 96-well plates into a 10 μL sample loop and passed through a C4 cartridge (Agilent Technologies) with solvent A (95% water, 0.01% formic acid, 5% acetonitrile) at a flow rate of 1.5 mL/minute for 3 seconds. After the desalting step, the analyte retained on the cartridge was eluted with solvent B (95% acetonitrile, 5% 0.01% formic acid) to the mass spectrometer at a flow rate of 0.4 mL/minute for 7 seconds. Mass spectrometry was carried out using electrospray ionization in the positive ion mode. Daughter ion peaks were identified using a multiple-reaction monitoring protocol.
Caco-2 (American Tissue Type Collection) a MDR1-MCDK (Netherlands Cancer Institute) were cultured in DMEM medium with 10% fetal bovine serum. […]
Calculations: The apparent permeability coefficient was calculated as Papp=(dQ/dt)/(C0×A), where dQ/dt is the rate of permeation of the drug across the cell monolayer, C0 is the donor compartment concentration at time t=0 and A is the area of the cell monolayer. […]

[12] = in vitro; type: in vitro ADME; settings: PAMPA, pH 7.4
Method: as §3
The parallel artificial membrane permeability assay (PAMPA) was performed using the Millipore MultiScreen filter MultiScreen-IP Durapore 0.45 μm plates and receiver plates (Merck Millipore) according to the manufacturer's protocol PC040EN00. […]
Calculations: The relative permeability log Pe was calculated as log Pe=log{Cx−ln(1−drugA/drugE)}, where C=(VA×VD)/{(VD+VA)×A×T}. […]

[13] = type: in vitro ADME; settings: human, 2 μM
Method: as §3
Test compound (a final concentration of 2 μM) was incubated with human plasma (Transfusion Department, University Hospital Olomouc, Olomouc, Czech Republic) for 0, 15, 30, 60 and 120 min at 37° C. The reactions were stopped by addition of acetonitrile-methanol mixture (2:1). Samples were stored at −80° C. overnight and centrifuged (2811×g, 6 min, 4° C.). Supernatants were lyophilized.

IC10 [8]: > 100 µM
IC10 [9]: > 100 µM
Papp at 1 h, 10 μM ([11]; dog, MDCK-MDR1, pH 7.4): 315 ×10⁻⁶ cm/s
Papp at 2 h, 10 μM ([11]; human, Caco-2, pH 7.4): 76 ×10⁻⁶ cm/s
Papp at 18 h, 20 AM [12]: 5.01 ×10⁻⁶ cm/s
Plasma stability (120 min) [% intact] [13]: 91 % intact
SMILES: c1coc(CNc2ncnc3nc[nH]c23)c1 [N-(furan-2-ylmethyl)-7H-purin-6-amine]
circadian rhythm period [1]: extends the circadian rhythm period
amplitude of circadian expression of mPer2-Luc ([2]; NIH3T3, FIG. 2): modulates the amplitude
circadian rhythm period ([2]; NIH3T3 mPer2-Luc, luminescence 144 hours, cosinor analysis, FIG. 2): prolongs the circadian rhythm period
circadian rhythm period ([3]; FIG. 3B): prolongs the circadian rhythm period
amplitude ([3]; FIG. 3C): modulates the amplitude
Bmal1 gene expression [4]: affects Bmal1 gene expression
Per2 gene expression [5]: regulates Per2 gene expression
effect on the length of the circadian period in combination with compounds that extend the circadian period ([6]; 50 μM together with PF670, T0901317, KL001, rosiglitazon, SR9009, FIG. 6A-6E): additive or even synergistic effect
effect on the period when added to harmine ([6]; 50 μM together with harmine, FIG. 6F): caused a decrease of the period
activity of antineoplastics on A549 viability after pretreatment [7]: increases activity of antineoplastics
cell growth (cell count) [10]: did not have a negative effect on cell growth
